Source: patent US20250176904A1, “PRE-DOSING METHOD OF ASSESSING DRUG BENEFITS IN PATIENTS” (priority 2022, published 2025)
Where “and” joins values, the source holds several entries; their conditions need not be identical. Identical values can stand only once. Entries after “also recorded” stand apart in the source; their conditions may differ.

Legend:
[1] = system: Male Long Evans rats; assay: Progressive ratio responding for food (lever press, break point, session duration); type: in vivo
Experimental: Animals and housing: Male Long Evans rats were used (source: Charles River Laboratories, St. Constant, Quebec). All study animals were singly housed in a vivarium under a 12 h light:dark cycle (lights on: 06:00 h-18:00 h). All behavioural testing was during the light phase. Rats were placed on a restricted diet regimen, where they were fed once a day with approximately 20 g of standard laboratory chow at the completion of testing procedures (16:00 h-18:00 h). For these animals, water was freely available except during testing. All animal use procedures were performed in accordance with the principles of the Canadian Council on Animal Care (CCAC).
Methods: A total of 72 rats were used in the psilocybin experiment. The basic test design involved training animals to lever press for a food reward (45 mg Bioserv pellets) under a progressive ratio (PR) schedule in which the number of responses required to achieve a pellet increases for successive reinforcers. The progressive ratio was derived from the equation ratio=[5×e^(0.2×reinforcer #)−5], and was as follows: […], etc.
Subjects were administered psilocybin (0.025, 0.05, 0.1 mg/kg) or vehicle control according to Latin square design, in which each animal received each treatment over repeated test sessions with 2-3 day intervals between each testing cycle. Subjects were also subgrouped into low responders (N=24) based on having the lowest average break point measure recorded over 7 days prior to testing and a separate analysis was conducted on this cohort.
Statistical analysis: Data are presented as means±SEM. Data from the progressive ratio task was analysed by one way (treatment) repeated measures ANOVA (Statistica Version 11, Statsoft Inc. [2012]). In the event of a significant main effect, post-hoc comparisons were carried out with Dunnett's test for comparison of drug treatment to vehicle control. Both study cohorts of “All” and “Low responders” were analysed separately. In all cases the accepted level of significance was P<0.05. Effect sizes for group mean differences were also calculated using partial eta squared (Statistica Version 11, Statsoft Inc. [2012]). In addition a correlational analysis (parametric: Pearson R; non-parametric: Spearman R) was conducted at each dose level to look at the relationship between baseline (vehicle) response and magnitude of change in break point and lever press following each psilocybin dose.

[2] = system: healthy volunteers; conditions: human, in vivo, po
[3] = all 72 rats, psilocybin 0.025, 0.05, 0.1 mg/kg SC vs vehicle, ANOVA main effect
[4] = low responder subgroup N=24, psilocybin 0.05-0.1 mg/kg relative to vehicle control

Which results are given for `CN(C)CCc1c[nH]c2cccc(OP(=O)(O)O)c12` [Psilocybin, 4-phosphoryloxy-N,N-dimethyltryptamine]?
number of lever press [1, 3]: no main effect of treatment; session duration [1, 3]: no main effect of treatment; break point ([1]; all 72 rats, psilocybin 0.025, 0.05, 0.1 mg/kg SC vs vehicle, post-hoc comparison): no treatment group was significantly different to vehicle; relationship between baseline responding and % change in break point or lever press ([1]; low responder subgroup N=24, 0.025 mg/kg SC): no such correlation; also recorded: no significant correlation; relationship between baseline responding and % change in break point or lever press ([1]; low responder subgroup N=24, 0.05 mg/kg SC, Pearson R and Spearman R): inverse correlation; also recorded: significant correlation; relationship between baseline responding and % change in break point or lever press ([1]; low responder subgroup N=24, 0.1 mg/kg SC, Pearson R and Spearman R): inverse correlation; also recorded: significant correlation; session duration ([1]; low responder subgroup N=24, 0.1 mg/kg, mean±SEM): 18.7 ± 2.5 min; session duration (treatment effect) ([1]; low responder subgroup N=24, psilocybin 0.025-0.1 mg/kg vs vehicle, ANOVA): no treatment effect; break point [1, 4]: increases; lever press [1, 4]: increases; RTI Median Five-Choice Reaction Time 2 Hr [2]: 381 and 347 and 377 and 386.5 and 446 and 343; RTI Median Five-Choice Reaction Time 4 Hr [2]: 330 and 346 and 377 and 413 and 431 and 330.5
